Test results: ChEMBL document CHEMBL1138209, “Scaffold of the cyclooxygenase-2 (COX-2) inhibitor carprofen provides Alzheimer gamma-secretase modulators” (J Med Chem, 2006)
Calls of active or inactive are those of the source. The calls are words filed in the database; no cut-off is given here.

How the values were obtained:
[1] = Inhibition of beta amyloid protein 40 in human H4 cells overexpressing APP695; format: cell-based
[2] = Inhibition of beta amyloid protein 42 in human H4 cells overexpressing APP695; format: cell-based
H4 [3] = assay: Increase in beta amyloid protein 38 in human H4 cells overexpressing APP695 at 40 uM; format: cell-based
H4 [4] = assay: Increase in beta amyloid protein 38 in human H4 cells overexpressing APP695 at 150 uM; format: cell-based
H4 [5] = assay: Cytotoxicity against human H4 cells at 40 uM; format: cell-based; conditions: h4, 40 µM
[6] = Inhibition of beta amyloid protein 38 in human H4 cells overexpressing APP695; format: cell-based
[7] = biological target: Prostaglandin G/H synthase 1 (Homo sapiens) (UniProt P23219); assay: Activity at COX1 at 10 uM
Chain of Prostaglandin G/H synthase 1 (Homo sapiens) (P23219 whole entry): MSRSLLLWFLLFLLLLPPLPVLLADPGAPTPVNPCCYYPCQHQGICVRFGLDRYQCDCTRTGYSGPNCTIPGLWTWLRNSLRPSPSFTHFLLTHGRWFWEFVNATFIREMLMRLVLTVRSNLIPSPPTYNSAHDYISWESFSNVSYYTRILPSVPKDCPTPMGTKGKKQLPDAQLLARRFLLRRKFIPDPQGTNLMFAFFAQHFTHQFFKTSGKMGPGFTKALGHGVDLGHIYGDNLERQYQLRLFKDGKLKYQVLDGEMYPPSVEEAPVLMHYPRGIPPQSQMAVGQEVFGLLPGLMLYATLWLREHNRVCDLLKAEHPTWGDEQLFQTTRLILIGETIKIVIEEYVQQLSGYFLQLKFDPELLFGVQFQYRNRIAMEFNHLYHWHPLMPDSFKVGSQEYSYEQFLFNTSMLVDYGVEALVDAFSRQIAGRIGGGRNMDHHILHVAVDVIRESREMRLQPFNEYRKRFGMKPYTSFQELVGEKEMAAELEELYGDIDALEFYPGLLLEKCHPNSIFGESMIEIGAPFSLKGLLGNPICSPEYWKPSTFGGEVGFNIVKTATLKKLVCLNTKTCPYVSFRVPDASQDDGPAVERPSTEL

H4 [8] = assay: Increase in beta amyloid protein 38 in human H4 cells overexpressing APP695 at 200 uM; format: cell-based
H4 [9] = assay: Increase in beta amyloid protein 38 in human H4 cells overexpressing APP695 at 160 uM; format: cell-based

| Compound | IC50 [1] | IC50 [2] | Activity (H4 [3]) | other results |
| --- | --- | --- | --- | --- |
| CCCc1ccc(S(=O)(=O)n2c3ccc(Cl)cc3c3ccc(C(C)C(=O)O)cc32)cc1 (configuration not stated) | > 40 µM | > 40 µM | inactive | – |
| CC(C(=O)O)c1ccc2c3cc(Cl)ccc3n(S(=O)(=O)c3cccc([N+](=O)[O-])c3)c2c1 (configuration not stated) | – | 39 µM | inactive | – |
| CC(C(=O)O)c1ccc2c3cc(Cl)ccc3n(Cc3cccc(NC(=O)CCCC[C@@H]4SC[C@@H]5NC(=O)N[C@@H]54)c3)c2c1 (some centres not stated) | > 150 µM | 88 µM | – | Activity (H4 [4]): inactive; Activity (H4 [5]): Toxic |
| CCCCCCCCn1c2ccc(Cl)cc2c2ccc(C(C)C(=O)O)cc21 (configuration not stated) | > 40 µM | 6.9 µM | inactive | – |
| CC(C(=O)O)c1ccc2c3cc(Cl)ccc3n(Cc3cccc(OC(F)(F)F)c3)c2c1 (configuration not stated) | > 40 µM | 7.5 µM | inactive | – |
| CC(C(=O)O)c1ccc2c3cc(Cl)ccc3n(S(=O)(=O)c3cc(F)cc(F)c3)c2c1 (configuration not stated) | – | > 40 µM | inactive | – |
| CC(C(=O)O)c1ccc2c3cc(Cl)ccc3n(S(=O)(=O)c3cc(Br)c(Br)s3)c2c1 (configuration not stated) | – | > 40 µM | inactive | – |
| CC(C(=O)O)c1ccc2c3cc(Cl)ccc3n(S(=O)(=O)c3ccccc3Br)c2c1 (configuration not stated) | – | 40 µM | inactive | – |
| CC(C(=O)O)c1ccc2c3cc(Cl)ccc3n(S(=O)(=O)c3ccc(C#N)cc3)c2c1 (configuration not stated) | – | > 40 µM | inactive | – |
| CC(C)c1cc(C(C)C)c(S(=O)(=O)n2c3ccc(Cl)cc3c3ccc(C(C)C(=O)O)cc32)c(C(C)C)c1 (configuration not stated) | > 20 µM | 8.5 µM | – | EC50 [6]: 9.3 µM; Activity (H4 [5]): Toxic |
| COc1cccc(Cn2c3ccc(Cl)cc3c3ccc(C(C)C(=O)O)cc32)c1 (configuration not stated) | > 40 µM | 39 µM | inactive | – |
| CCCCCCCCS(=O)(=O)n1c2ccc(Cl)cc2c2ccc(C(C)C(=O)O)cc21 (configuration not stated) | > 40 µM | 25 µM | inactive | – |
| CCCCCCCCCn1c2ccc(Cl)cc2c2ccc(C(C)C(=O)O)cc21 (configuration not stated) | > 40 µM | 3 µM | – | EC50 [6]: 8.1 µM |
| CC(C(=O)O)c1ccc2c3cc(Cl)ccc3n(S(=O)(=O)c3ccc(F)cc3)c2c1 (configuration not stated) | – | > 40 µM | inactive | – |
| CC(C(=O)O)c1ccc2c3cc(Cl)ccc3n(S(=O)(=O)c3ccc(-c4ccccc4)cc3)c2c1 (configuration not stated) | – | 37 µM | inactive | – |
| CC(C(=O)O)c1ccc2c3cc(Cl)ccc3n(S(=O)(=O)c3ccc(Br)cc3)c2c1 (configuration not stated) | – | > 40 µM | inactive | – |
| CC(C(=O)O)c1ccc2c3cc(Cl)ccc3n(S(=O)(=O)c3cccc(Cl)c3)c2c1 (configuration not stated) | – | > 40 µM | inactive | – |
| CCCCCCCCCCn1c2ccc(Cl)cc2c2ccc(C(C)C(=O)O)cc21 (configuration not stated) | > 40 µM | 2.9 µM | – | EC50 [6]: 5.8 µM; Activity [7]: inactive |
| Cc1ccc(S(=O)(=O)n2c3ccc(Cl)cc3c3ccc(C(C)C(=O)O)cc32)cc1 (configuration not stated) | > 100 µM | 56 µM | – | EC50 [6]: 43 µM; Activity (H4 [8]): inactive |
| CC(C(=O)O)c1ccc2c(c1)[nH]c1ccc(Cl)cc12 (racemic) [CARPROFEN] | 133 µM | 76 µM | – | IC50 [6]: 78 µM; Activity (H4 [9]): inactive |
| CC(C(=O)O)c1ccc2c3cc(Cl)ccc3n(S(=O)(=O)c3ccc(Cl)cc3)c2c1 (configuration not stated) | – | > 40 µM | inactive | – |
| CC(C(=O)O)c1ccc2c3cc(Cl)ccc3n(S(=O)(=O)c3ccccc3)c2c1 (configuration not stated) | – | > 40 µM | inactive | – |
| CC(C(=O)O)c1ccc2c3cc(Cl)ccc3n(Cc3cccc([N+](=O)[O-])c3)c2c1 (configuration not stated) | > 40 µM | 22 µM | inactive | – |
| CC(C(=O)O)c1ccc2c3cc(Cl)ccc3n(S(=O)(=O)c3ccccc3F)c2c1 (configuration not stated) | – | > 40 µM | inactive | – |
| CC(C(=O)O)c1ccc2c3cc(Cl)ccc3n(S(=O)(=O)c3ccc([N+](=O)[O-])cc3)c2c1 (configuration not stated) | – | > 40 µM | inactive | – |
| CC(C(=O)O)c1ccc2c3cc(Cl)ccc3n(S(=O)(=O)c3cc(C(F)(F)F)cc(C(F)(F)F)c3)c2c1 (configuration not stated) | > 30 µM | 11 µM | – | Activity (H4 [8]): inactive |
| CC(C(=O)O)c1ccc2c3cc(Cl)ccc3n(S(=O)(=O)c3cccc(F)c3)c2c1 (configuration not stated) | – | > 40 µM | inactive | – |
